# Experimental data: patent US20250041277A1, “METHODS AND DOSING REGIMENS COMPRISING A CDK2 INHIBITOR AND A CDK4 INHIBITOR FOR TREATING CANCER” (PFIZER INC., priority 2021, published 2025)
# Where “and” joins values, the source holds several entries; their conditions need not be identical. Equal entries are not always repeated.
# Columns and labels:
# [1] = tested on: MCF7 breast cancer model; experiment: In vivo efficacy, HR+/HER2− MCF7 breast cancer model (Example 4); set-up: species or system NSG mice; settings: MCF7, Day 29; PO BID: PF-07104091 120 mpk, PF-07220060 60 mpk, PF-06873600 30 mpk, palbociclib 10 mpk; fulvestrant 10 mpk SC
# Procedure: (§1) Female NSG mice (Jackson Lab) were subcutaneously implanted with fragment (27 mm^3 to 64 mm^3 size) into the dorsal region. All mice for HCC1428, MCF7 and ST941 PBR studies were supplemented with 8.5 μg/mL estradiol water (β-Estradiol Sigma-Aldrich, cat #E2758-5G) and gave ad libitum till end of study. For the in vivo efficacy studies, tumor volume and body weights were measured twice a week. Tumor volume was calculated using the [(Length×Width×Width)/2)] formula. TGI was calculated as 100*(1−ΔT/ΔC). The ΔC (ΔT) was obtained by subtracting the mean tumor burden in the vehicle (treated) group on the first day of treatment (Day 0) from the mean tumor burden in vehicle (treated) group on the assessment day. Statistical analysis was performed using ANCOVA when the mean tumor volume in vehicle treated mice reached tumor cutoff size.
# The MCF7 model was established by implanting donor tumor fragments into recipient mice. To establish the MCF7 donor mice, tumor cells (5×10^6 cell/mouse with 50% Cultrex® Basement Membrane Matrix) were subcutaneously implanted in female NSG mice. Once reaching a range of 700 to 800 mm^3, donor tumors were subsequently transplanted into secondary recipient mice for a study expansion. […] PF-07104091 (lot 022), PF-07220060 (lot CPo126812-01-SY-5700-01), PF-06873600 (lot 022) and PD-0332991 (lot GR08498) were administered (PO) BID (7 hr apart) while fulvestrant (lot 20160224-2) at 10 mg/kg, SC twice in the first week, then weekly afterwards. All mice received treatment continuously until Day 29. TGI was assessed on Day 29 post first dose
# [2] = tested on: ST941 PBR PDX model; experiment: In vivo efficacy, palbociclib-resistant ST941 PBR PDX model (Example 3); set-up: species or system NSG mice; settings: ST941PBR, Day 28; PO BID: PF-07104091 150 mpk, PF-07220060 60 mpk, palbociclib 10 mpk; fulvestrant 10 mpk SC 2x week 1 then weekly
# Procedure: as §1, with “T47D, HCC1428” for “HCC1428, MCF7”
# We established model in house by continuous treatment of the ST941 PBR tumor bearing mice with PD-0332991 at 50 mg/kg, PO QD plus fulvestrant at 10 mg/kg, SC twice in the first week, then weekly thereafter. To propagate donors for the TGI study, tumors were transplanted to recipient mice. One week after the re-implantation, the recipient mice received continuous treatment with palbociclib plus fulvestrant (dosing schedule described above). After 1 to 2 serial in vivo propagation with the same treatment regimen, the resistant tumors in the range of 700 to 800 mm^3 were re-implanted for a study expansion. The remaining tumor fragments were viably frozen for future use.
# The live donor mice were established by implanting ST941 PBR (p11) tumor fragments. Once reaching a range of 700 to 800 mm^3, the donor tumors were subsequently transplanted into secondary recipient mice for a study expansion. To maintain the resistant clones, the ST941 PBR tumor bearing mice were treated with PD-0332991 at 50 mg/kg, PO. QD plus fulvestrant at 10 mg/kg, SC twice in the first week, then weekly afterwards for 10 weeks. The treatment was initiated one week after the implant until day of randomization for study enrollment. […] TGI was assessed on Day 28 post first dose.
# [3] = tested on: NCI-H2347; experiment: Combinatorial activity in LUAD cell line NCI-H2347; assay type: cell-based; settings: Homo sapiens; NCI-H2347, KRAS L19F; single agent; read-out: (nM) s.a.
# Procedure: (§2) Combinatorial activity of PF-07104091 and PF-07220060 was assessed in LUADs as single agents (s.a.) or in combination.
# [4] = tested on: NCIH2228 (RB mut); experiment: Combinatorial activity in LUAD cell line NCIH2228; assay type: cell-based; settings: Homo sapiens, NCI-H2228, WT, single agent, read-out: (nM) s.a.
# Procedure: as §2
IC50 [3] [nM],IC50 [4] [nM],Compound,TGI % [1] [%],TGI % [2]
364,~1000,"COCc1cc(C(=O)Nc2cc([C@H]3CC[C@@H](OC(=O)NC(C)C)C3)[nH]n2)n(C)n1 [PF-07104091, (1R,3S)-3-[3-({[3-(methoxymethyl)-1-methyl-1H-pyrazol-5-yl]carbonyl}amino)-1H-pyrazol-5-yl]cyclopentyl propan-2-ylcarbamate]",60,34% and 24^* %
70,839,"CC(C)n1c(C(C)(C)O)nc2c(F)cc(-c3nc(N[C@@H]4CCOC[C@H]4O)ncc3Cl)cc21 [PF-07220060, 1,5-anhydro-3-({5-chloro-4-[4-fluoro-2-(2-hydroxypropan-2-yl)-1-(propan-2-yl)-1H-benzimidazol-6-yl]pyrimidin-2-yl}amino)-2,3-dideoxy-D-threo-pentitol]",79,28%
